# Assays:
# Assay in all cases: Test B pre-/postemergence
# Assay type in all cases: in vivo
# Design in all cases: key: 0 is no effect; 10 is complete control
# [1] = tested on: crabgrass (Digitaria sanguinalis)
# Procedure, shortened: (§1)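 Compounds in a surfactant-containing, non-phytotoxic solvent blend are applied to freshly planted seed (preemergence) and, concurrently, to seedlings of 2 to 18 cm at 1–4 leaves (postemergence). Plants stay in the greenhouse twelve to sixteen days and are then scored visually from 0 (no effect) to 10 (complete control).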
# [2] = tested on: blackgrass (Alopecurus myosuroides)
# Procedure, shortened: as §1
# [3] = tested on: purple nutsedge (Cyperus rotundus)
# Procedure, shortened: as §1
# wild oat (Avena fatua) = tested on: wild oat (Avena fatua)
# Procedure, shortened: as §1
# soybean (Glycine max) = tested on: soybean (Glycine max)
# Procedure, shortened: as §1
# [4] = Preemergence, Rate 62 g/ha, scale of 0 to 10
compound,measurement,setting,value
Cc1cnc(-c2ccc(C(F)(F)F)cc2)nc1C(=O)c1cccc(OC(F)(F)F)c1 [Compound 75],"Plant response rating, Crabgrass",[1]; [4],6
same,Crabgrass plant response rating,"[1]; Rate 125 g/ha, Postemergence",4
same,"Plant response rating, Crabgrass","[1]; Rate 125 g/ha, Preemergence",9
same,"Plant response rating, Crabgrass","[1]; Rate 250 g/ha, Preemergence",9
same,"Plant response rating, Crabgrass","[1]; Rate 500 g/ha, Preemergence",10
same,"Plant response rating, Blackgrass",[2]; [4],3
same,Blackgrass plant response rating,"[2]; Rate 62 g/ha, Postemergence",3
same,Blackgrass plant response rating,"[2]; Rate 125 g/ha, Postemergence",6
same,"Plant response rating, Blackgrass","[2]; Rate 125 g/ha, Preemergence",8
same,"Plant response rating, Blackgrass","[2]; Rate 250 g/ha, Postemergence",8
same,"Plant response rating, Blackgrass","[2]; Rate 250 g/ha, Preemergence",9
same,"Plant response rating, Blackgrass","[2]; Rate 500 g/ha, Preemergence",10
same,"Plant response rating, Nutsedge",[3]; [4],0
same,Nutsedge plant response rating,"[3]; Rate 62 g/ha, Postemergence",0
same,Nutsedge plant response rating,"[3]; Rate 125 g/ha, Postemergence",0
same,"Plant response rating, Nutsedge","[3]; Rate 125 g/ha, Preemergence",0
same,"Plant response rating, Nutsedge","[3]; Rate 250 g/ha, Postemergence",0
same,"Plant response rating, Nutsedge","[3]; Rate 250 g/ha, Preemergence",0
same,"Plant response rating, Nutsedge","[3]; Rate 500 g/ha, Preemergence",0
same,"Plant response rating, Wild oats",wild oat (Avena fatua); [4],5
same,Wild oats plant response rating,"wild oat (Avena fatua); Rate 62 g/ha, Postemergence",3
same,Wild oats plant response rating,"wild oat (Avena fatua); Rate 125 g/ha, Postemergence",3
same,"Plant response rating, Wild oats","wild oat (Avena fatua); Rate 125 g/ha, Preemergence",7
same,"Plant response rating, Wild oats","wild oat (Avena fatua); Rate 250 g/ha, Postemergence",3
same,"Plant response rating, Wild oats","wild oat (Avena fatua); Rate 250 g/ha, Preemergence",7
same,"Plant response rating, Wild oats","wild oat (Avena fatua); Rate 500 g/ha, Preemergence",9
same,"Plant response rating, Soybean",soybean (Glycine max); [4],0
same,Soybean plant response rating,"soybean (Glycine max); Rate 62 g/ha, Postemergence",3
same,Soybean plant response rating,"soybean (Glycine max); Rate 125 g/ha, Postemergence",3
same,"Plant response rating, Soybean","soybean (Glycine max); Rate 125 g/ha, Preemergence",0
same,"Plant response rating, Soybean","soybean (Glycine max); Rate 250 g/ha, Postemergence",3
same,"Plant response rating, Soybean","soybean (Glycine max); Rate 250 g/ha, Preemergence",0
same,"Plant response rating, Soybean","soybean (Glycine max); Rate 500 g/ha, Preemergence",1
Cc1cnc(-c2ccc(C(F)(F)F)cc2)nc1C(=O)c1cccc(C(F)(F)F)c1 [Compound 73],"Plant response rating, Crabgrass",[1]; [4],10
same,Crabgrass plant response rating,"[1]; Rate 62 g/ha, Postemergence",7
same,Crabgrass plant response rating,"[1]; Rate 125 g/ha, Postemergence",9
same,"Plant response rating, Crabgrass","[1]; Rate 125 g/ha, Preemergence",10
same,"Plant response rating, Crabgrass","[1]; Rate 250 g/ha, Postemergence",9
same,"Plant response rating, Crabgrass","[1]; Rate 250 g/ha, Preemergence",10
same,"Plant response rating, Crabgrass","[1]; Rate 500 g/ha, Postemergence",9
same,"Plant response rating, Crabgrass","[1]; Rate 500 g/ha, Preemergence",10
same,"Plant response rating, Blackgrass",[2]; [4],8
same,Blackgrass plant response rating,"[2]; Rate 62 g/ha, Postemergence",7
same,Blackgrass plant response rating,"[2]; Rate 125 g/ha, Postemergence",7
same,"Plant response rating, Blackgrass","[2]; Rate 125 g/ha, Preemergence",9
same,"Plant response rating, Blackgrass","[2]; Rate 250 g/ha, Postemergence",9
same,"Plant response rating, Blackgrass","[2]; Rate 250 g/ha, Preemergence",10
same,"Plant response rating, Blackgrass","[2]; Rate 500 g/ha, Postemergence",9
same,"Plant response rating, Blackgrass","[2]; Rate 500 g/ha, Preemergence",10
same,"Plant response rating, Nutsedge",[3]; [4],0
same,Nutsedge plant response rating,"[3]; Rate 62 g/ha, Postemergence",0
same,Nutsedge plant response rating,"[3]; Rate 125 g/ha, Postemergence",0
same,"Plant response rating, Nutsedge","[3]; Rate 125 g/ha, Preemergence",0
same,"Plant response rating, Nutsedge","[3]; Rate 250 g/ha, Postemergence",2
same,"Plant response rating, Nutsedge","[3]; Rate 250 g/ha, Preemergence",0
same,"Plant response rating, Nutsedge","[3]; Rate 500 g/ha, Preemergence",0
same,"Plant response rating, Wild oats",wild oat (Avena fatua); [4],7
same,Wild oats plant response rating,"wild oat (Avena fatua); Rate 62 g/ha, Postemergence",6
same,Wild oats plant response rating,"wild oat (Avena fatua); Rate 125 g/ha, Postemergence",7
same,"Plant response rating, Wild oats","wild oat (Avena fatua); Rate 125 g/ha, Preemergence",9
same,"Plant response rating, Wild oats","wild oat (Avena fatua); Rate 250 g/ha, Postemergence",9
same,"Plant response rating, Wild oats","wild oat (Avena fatua); Rate 250 g/ha, Preemergence",10
same,"Plant response rating, Wild oats","wild oat (Avena fatua); Rate 500 g/ha, Postemergence",9
same,"Plant response rating, Wild oats","wild oat (Avena fatua); Rate 500 g/ha, Preemergence",10
same,"Plant response rating, Soybean",soybean (Glycine max); [4],0
same,Soybean plant response rating,"soybean (Glycine max); Rate 62 g/ha, Postemergence",8
same,Soybean plant response rating,"soybean (Glycine max); Rate 125 g/ha, Postemergence",9
same,"Plant response rating, Soybean","soybean (Glycine max); Rate 125 g/ha, Preemergence",1
same,"Plant response rating, Soybean","soybean (Glycine max); Rate 250 g/ha, Postemergence",9
same,"Plant response rating, Soybean","soybean (Glycine max); Rate 250 g/ha, Preemergence",1
same,"Plant response rating, Soybean","soybean (Glycine max); Rate 500 g/ha, Postemergence",6
same,"Plant response rating, Soybean","soybean (Glycine max); Rate 500 g/ha, Preemergence",2
Cc1cnc(-n2ccc(C(F)(F)C(F)(F)F)n2)nc1C(=O)c1cccc(C(F)(F)F)c1 [Compound 68],"Plant response rating, Crabgrass",[1]; [4],3
same,Crabgrass plant response rating,"[1]; Rate 62 g/ha, Postemergence",5
same,Crabgrass plant response rating,"[1]; Rate 125 g/ha, Postemergence",8
same,"Plant response rating, Crabgrass","[1]; Rate 125 g/ha, Preemergence",4
same,"Plant response rating, Crabgrass","[1]; Rate 250 g/ha, Postemergence",8
same,"Plant response rating, Crabgrass","[1]; Rate 250 g/ha, Preemergence",9
same,"Plant response rating, Crabgrass","[1]; Rate 500 g/ha, Postemergence",8
same,"Plant response rating, Crabgrass","[1]; Rate 500 g/ha, Preemergence",10
same,"Plant response rating, Blackgrass",[2]; [4],3
same,Blackgrass plant response rating,"[2]; Rate 62 g/ha, Postemergence",2
same,Blackgrass plant response rating,"[2]; Rate 125 g/ha, Postemergence",3
same,"Plant response rating, Blackgrass","[2]; Rate 125 g/ha, Preemergence",5
same,"Plant response rating, Blackgrass","[2]; Rate 250 g/ha, Postemergence",4
same,"Plant response rating, Blackgrass","[2]; Rate 250 g/ha, Preemergence",7
same,"Plant response rating, Blackgrass","[2]; Rate 500 g/ha, Postemergence",5
same,"Plant response rating, Blackgrass","[2]; Rate 500 g/ha, Preemergence",7
same,"Plant response rating, Nutsedge",[3]; [4],0
same,Nutsedge plant response rating,"[3]; Rate 62 g/ha, Postemergence",0
same,Nutsedge plant response rating,"[3]; Rate 125 g/ha, Postemergence",0
same,"Plant response rating, Nutsedge","[3]; Rate 125 g/ha, Preemergence",0
same,"Plant response rating, Nutsedge","[3]; Rate 250 g/ha, Postemergence",0
same,"Plant response rating, Nutsedge","[3]; Rate 250 g/ha, Preemergence",0
same,"Plant response rating, Nutsedge","[3]; Rate 500 g/ha, Preemergence",0
same,"Plant response rating, Wild oats",wild oat (Avena fatua); [4],4
same,Wild oats plant response rating,"wild oat (Avena fatua); Rate 62 g/ha, Postemergence",2
same,Wild oats plant response rating,"wild oat (Avena fatua); Rate 125 g/ha, Postemergence",2
same,"Plant response rating, Wild oats","wild oat (Avena fatua); Rate 125 g/ha, Preemergence",6
same,"Plant response rating, Wild oats","wild oat (Avena fatua); Rate 250 g/ha, Postemergence",2
same,"Plant response rating, Wild oats","wild oat (Avena fatua); Rate 250 g/ha, Preemergence",7
same,"Plant response rating, Wild oats","wild oat (Avena fatua); Rate 500 g/ha, Postemergence",3
same,"Plant response rating, Wild oats","wild oat (Avena fatua); Rate 500 g/ha, Preemergence",8
same,"Plant response rating, Soybean",soybean (Glycine max); [4],0
same,Soybean plant response rating,"soybean (Glycine max); Rate 62 g/ha, Postemergence",3
same,Soybean plant response rating,"soybean (Glycine max); Rate 125 g/ha, Postemergence",5
same,"Plant response rating, Soybean","soybean (Glycine max); Rate 125 g/ha, Preemergence",1
same,"Plant response rating, Soybean","soybean (Glycine max); Rate 250 g/ha, Postemergence",7
same,"Plant response rating, Soybean","soybean (Glycine max); Rate 250 g/ha, Preemergence",2
same,"Plant response rating, Soybean","soybean (Glycine max); Rate 500 g/ha, Postemergence",7
same,"Plant response rating, Soybean","soybean (Glycine max); Rate 500 g/ha, Preemergence",2
Cc1cnc(-c2ccc(C(F)(F)F)cc2)nc1Cn1cnc(C(F)(F)F)c1 [Compound 10],"Plant response rating, Crabgrass","[1]; Rate 62 g/ha, Postemergence",2
same,Crabgrass plant response rating,"[1]; Rate 62 g/ha, Preemergence",5
same,"Plant response rating, Crabgrass","[1]; Rate 125 g/ha, Postemergence",2
same,Crabgrass plant response rating,"[1]; Rate 125 g/ha, Preemergence",7
same,"Plant response rating, Crabgrass","[1]; Rate 250 g/ha, Postemergence",4
same,"Plant response rating, Crabgrass","[1]; Rate 250 g/ha, Preemergence",9
same,"Plant response rating, Crabgrass","[1]; Rate 500 g/ha, Postemergence",6
same,"Plant response rating, Crabgrass","[1]; Rate 500 g/ha, Preemergence",9
same,"Plant response rating, Blackgrass","[2]; Rate 62 g/ha, Postemergence",1
same,Blackgrass plant response rating,"[2]; Rate 62 g/ha, Preemergence",1
same,"Plant response rating, Blackgrass","[2]; Rate 125 g/ha, Postemergence",1
same,Blackgrass plant response rating,"[2]; Rate 125 g/ha, Preemergence",2
same,"Plant response rating, Blackgrass","[2]; Rate 250 g/ha, Postemergence",3
same,"Plant response rating, Blackgrass","[2]; Rate 250 g/ha, Preemergence",2
same,"Plant response rating, Blackgrass","[2]; Rate 500 g/ha, Postemergence",3
same,"Plant response rating, Blackgrass","[2]; Rate 500 g/ha, Preemergence",3
same,"Plant response rating, Nutsedge","[3]; Rate 62 g/ha, Postemergence",0
same,Nutsedge plant response rating,"[3]; Rate 62 g/ha, Preemergence",0
same,"Plant response rating, Nutsedge","[3]; Rate 125 g/ha, Postemergence",0
same,Nutsedge plant response rating,"[3]; Rate 125 g/ha, Preemergence",0
same,"Plant response rating, Nutsedge","[3]; Rate 250 g/ha, Postemergence",0
same,"Plant response rating, Nutsedge","[3]; Rate 250 g/ha, Preemergence",0
same,"Plant response rating, Nutsedge","[3]; Rate 500 g/ha, Postemergence",3
same,"Plant response rating, Nutsedge","[3]; Rate 500 g/ha, Preemergence",0
same,"Plant response rating, Wild oats","wild oat (Avena fatua); Rate 62 g/ha, Postemergence",2
same,Wild oats plant response rating,"wild oat (Avena fatua); Rate 62 g/ha, Preemergence",0
same,"Plant response rating, Wild oats","wild oat (Avena fatua); Rate 125 g/ha, Postemergence",2
same,Wild oats plant response rating,"wild oat (Avena fatua); Rate 125 g/ha, Preemergence",1
same,"Plant response rating, Wild oats","wild oat (Avena fatua); Rate 250 g/ha, Postemergence",2
same,"Plant response rating, Wild oats","wild oat (Avena fatua); Rate 250 g/ha, Preemergence",2
same,"Plant response rating, Wild oats","wild oat (Avena fatua); Rate 500 g/ha, Postemergence",3
same,"Plant response rating, Wild oats","wild oat (Avena fatua); Rate 500 g/ha, Preemergence",4
same,"Plant response rating, Soybean","soybean (Glycine max); Rate 62 g/ha, Postemergence",6
same,Soybean plant response rating,"soybean (Glycine max); Rate 62 g/ha, Preemergence",0
same,"Plant response rating, Soybean","soybean (Glycine max); Rate 125 g/ha, Postemergence",6
same,Soybean plant response rating,"soybean (Glycine max); Rate 125 g/ha, Preemergence",0
same,"Plant response rating, Soybean","soybean (Glycine max); Rate 250 g/ha, Postemergence",8
same,"Plant response rating, Soybean","soybean (Glycine max); Rate 250 g/ha, Preemergence",1
same,"Plant response rating, Soybean","soybean (Glycine max); Rate 500 g/ha, Postemergence",8
same,"Plant response rating, Soybean","soybean (Glycine max); Rate 500 g/ha, Preemergence",1
